Assays:
[1] = target: T1, PTP1B (Homo sapiens, UniProt P18031); test: PTP inhibition assay with DiFMUP substrate (IC50); type: biochemical
T1 construct: PTP1B, residues 1-321; made in house; host or cells: E. coli BL21(DE3)
T1 sequence (P18031 1-321): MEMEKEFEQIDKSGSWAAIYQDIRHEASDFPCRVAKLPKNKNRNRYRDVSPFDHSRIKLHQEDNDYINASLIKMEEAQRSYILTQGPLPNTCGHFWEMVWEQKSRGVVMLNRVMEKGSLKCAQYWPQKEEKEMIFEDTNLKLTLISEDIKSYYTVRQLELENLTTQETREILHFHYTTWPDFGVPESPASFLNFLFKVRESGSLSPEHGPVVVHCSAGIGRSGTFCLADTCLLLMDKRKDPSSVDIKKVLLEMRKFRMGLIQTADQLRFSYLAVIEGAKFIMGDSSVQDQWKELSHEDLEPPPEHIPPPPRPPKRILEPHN
Method: Cell pellets were stored at −80 °C for subsequent protein purification.
Protein purification of PTPs for enzymatic assays was conducted at 4 °C. Frozen cell pellets were lysed by sonication in 40 ml cold lysis buffer (50 mM Tris-HCl, pH 8.0, 150 mM NaCl, 5 mM imidazole, and 1 mM PMSF) per litre cell pellet. […] The supernatant was incubated with HisPur Ni-NTA resin (Thermo Scientific) for 2 h and then packed onto a column and washed with 50 resin volume of buffer A (50 mM Tris-HCl, pH 8.0, 500 mM NaCl, 5 mM imidazole). The His-tagged proteins were eluted with Buffer B (50 mM Tris-HCl, pH=8.0, 500 mM NaCl, 300 mM imidazole,). […]
(§1) The PTP kinetic assay was modified from previous reported protocols[73],[74]. […] The fluorescence signal was measured using a CLARIOstar Plus Microplate Spectrophotometer (BMG Labtech) using excitation and emission wavelengths of 340 nm and 450 nm, respectively. […]
(§2) To determine the mode of inhibition, the reactions were initiated by the addition of enzyme (final concentration for PTP1B and PTPN2 was 0.05 nM) to the reaction mixtures (0.2 ml) containing various concentrations of DiFMUP with different concentrations of the inhibitor. […] The fluorescence signal was measured using a CLARIOstar Plus Microplate Spectrophotometer (BMG Labtech) using excitation and emission wavelength of 340 nm and 450 nm, respectively. […]

[2] = target: T2, PTPN2 (Homo sapiens, UniProt P17706); test: PTP inhibition assay with DiFMUP substrate (IC50); type: biochemical; settings: DiFMUP 10 μM as substrate
T2 construct: PTPN2, residues 1-387; made in house; host or cells: E. coli BL21(DE3)
T2 sequence (P17706 1-387 isoform P17706-2): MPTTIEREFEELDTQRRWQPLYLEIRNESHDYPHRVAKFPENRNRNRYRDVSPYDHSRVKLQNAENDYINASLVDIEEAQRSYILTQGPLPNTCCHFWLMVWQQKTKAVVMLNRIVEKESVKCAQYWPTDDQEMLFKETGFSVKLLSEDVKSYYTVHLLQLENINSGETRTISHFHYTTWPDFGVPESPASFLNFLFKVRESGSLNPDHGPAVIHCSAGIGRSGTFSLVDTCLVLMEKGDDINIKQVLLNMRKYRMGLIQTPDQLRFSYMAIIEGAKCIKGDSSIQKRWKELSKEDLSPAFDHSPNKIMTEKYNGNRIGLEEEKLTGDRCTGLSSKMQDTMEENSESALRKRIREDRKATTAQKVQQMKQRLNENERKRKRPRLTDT
Method: E. coli BL21(DE3) (Novagen) was used as an expression host and the induction of protein expression was carried out in LB media with 1 mM IPTG at 18 °C overnight. Cell pellets were stored at −80 °C for subsequent protein purification.
Protein purification of PTPs for enzymatic assays was conducted at 4 °C. Frozen cell pellets were lysed by sonication in 40 ml cold lysis buffer (50 mM Tris-HCl, pH 8.0, 150 mM NaCl, 5 mM imidazole, and 1 mM PMSF) per litre cell pellet. Cell lysates were clarified by centrifugation using a Beckman JA-18 rotor for 15 min at 5308 x g. The supernatant was incubated with HisPur Ni-NTA resin (Thermo Scientific) for 2 h and then packed onto a column and washed with 50 resin volume of buffer A (50 mM Tris-HCl, pH 8.0, 500 mM NaCl, 5 mM imidazole). The His-tagged proteins were eluted with Buffer B (50 mM Tris-HCl, pH=8.0, 500 mM NaCl, 300 mM imidazole,). Pooled His-protein-containing fractions were concentrated, loaded onto a HiLoad 26/600 Superdex 75 column (GE Healthcare Biosciences) and eluted with storage buffer (50 mM Tris-HCl, pH 8.0, 150 mM NaCl, 1 mM DTT, 10% glycerol). […] The protein was aliquoted and stored at −80 °C.
as §1, §2

**Q.** For CC(C)CCN[C@@H]1CCc2cc(O)c(N3CC(=O)NS3(=O)=O)c(F)c2C1 [ABBV-CLS-484], which IC50 ([1]; DiFMUP 10 μM as substrate) is on record?
**A.** The IC50 was 1.84 ± 0.09 nM.

**Q.** What about the “IC50 values relative to those of Compound 182” value ([1]; PTP1B and PTPN2, same conditions) of the same molecule?
**A.** The value was “approximately 3 fold”.

**Q.** And the IC50 [2]?
**A.** Its IC50 is 1.6 ± 0.06 nM.
